Read-outs that look alike come from different tables or passages of the source.
How the values were obtained:
[1] = in vivo; cited from earlier work
Herpes B = details: cited from earlier work
[2] = in vivo; cited from earlier work; remark: listed apart in the source
[3] = in vivo; cited from earlier work; remark: listed apart in the source
[4] = sheep; cited from earlier work
[5] = sheep; doses as high as 50 mg/kg; cited from earlier work
[6] = in vivo; cited from earlier work; remark: listed apart in the source
[7] = cited from earlier work
hepatitis C, genotype 4 = assay: Open label clinical trial of oral methylene blue, reduction in hepatitis C viral load measured by PCR
chronic hepatitis B or C = details: patients with chronic hepatitis B or C; cited from earlier work
[8] = at 50 days, of the 23 responders

Compound: CC(C)[C@H](N)C(=O)OCCOCn1cnc2c(=O)[nH]c(N)nc21 [Valaciclovir]
- oral bioavailability superior to that of oral acyclovir [1]: 3-5 times

Compound: CC(=O)OCC(CCn1cnc2cnc(N)nc21)COC(C)=O [famciclovir]
- oral bioavailability superior to that of oral acyclovir [1]: 3-5 times

Compound: Nc1nc(O)c2ncn(COC(CO)CO)c2n1 [Ganciclovir]
- sensitivity of the virus in vitro (Herpes B): sensitive

Compound: CN(C)c1ccc2nc3ccc(N(C)C)cc3[s+]c2c1 [methylene blue, 3,7-Bis(dimethylamino)-phenothiazin-5-ium chloride]
- oral absorption (range) [2]: 55% to 97
- absorption from the GI tract [3]: absorbed well
- overall elimination rate constant [4]: 0.0076 ± 0.0016 min⁻¹
- methemoglobin production [5]: minimal methemoglobin production
- crossing of the blood-milk barrier [6]: crosses the blood-milk barrier easily
- side effects ([7]; adult humans, one week to 19 months, 100 mg b.i.d. or t.i.d. orally or 100 mg intravenously): minimal side effects
- side effects ([7]; recommended dose 50 to 300 mg by mouth, 1 to 4 mg/kg intravenously): blue urine, occasional nausea, anemia and fever
- decrease in viral count (hepatitis C, genotype 4; 23 patients (of 25, genotype 4), at 50 days): 70-100%
- non-responders (hepatitis C, genotype 4; at 50 days, 25 patients, genotype 4): Two
- responders with between 0.7-1 log reduction in viral load (hepatitis C, genotype 4; [8]): 12 (52%) patients (%)
- responders with between 1-2 log reduction in viral load (hepatitis C, genotype 4; [8]): 6 (26%) patients (%)
- responders with viral clearance (hepatitis C, genotype 4; [8]): 5 (22%) patients (%)
- drop in viral load (hepatitis C, genotype 4; interim results, 8 of 9 patients, within the first 50 days): 62%-100
- patients with between greater than or equal to 0.6 log to less than or equal to 1 log reduction in viral load (hepatitis C, genotype 4; interim results, first 9 patients, 50 days of treatment): 89%
- patients with a greater than or equal to two log reduction in viral load (hepatitis C, genotype 4; interim results, first 9 patients, 50 days of treatment, 65 mg twice daily oral): 33%
- efficacy in treating hepatitis C (conclusion) (hepatitis C, genotype 4; overall conclusion of the trial results): highly efficacious

Compound: Interferon alpha
- patients in whom treatment is effective (chronic hepatitis B or C): 25-30%

Compound: Nc1nc2c(ncn2COCCO)c(=O)[nH]1 [Acyclovir]
- sensitivity of the virus in vitro (Herpes B): sensitive

— patent US20060264423A1 (BIOENVISION, INC., priority 2005, published 2006)
